Test results reported in US20240262833A1, “FUSED HETEROCYCLIC DERIVATIVES AS NEGATIVE ALLOSTERIC MODULATORS OF MGLU7 RECEPTOR” (Addex Pharma S.A., priority 2021, published 2024).

Columns and labels:
[1] = target: T1, human metabotropic glutamate 7 receptor (hmGlu7) (Homo sapiens, UniProt Q14831); assay: mGlu7 assay on HEK-expressing human mGlu7: fluorescent cell based Ca2+ mobilization assay (FLIPR), inhibition of EC80 L-AP4 response; settings: HEK-293 cells expressing hmGlu7; EC80 L-AP4 stimulation; mean of at least three independent experiments in duplicate; read-out: Ca2+ Flux (mean IC50)
T1 construct: expressed in transfected cells
In short: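 HEK293 cells stably expressing hmGlu7 with a calcium-redirecting G protein were Fluo4-AM-loaded and assayed at pH 7.4 in HEPES buffer. Compounds were monitored for 180 s for agonism, then cells were challenged with EC80 L-AP4 for 110 s. IC50 was obtained from four-parameter fits, as the mean of ≥3 experiments run in duplicate.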

T1 sequence (Q14831 35-922 isoform Q14831-2): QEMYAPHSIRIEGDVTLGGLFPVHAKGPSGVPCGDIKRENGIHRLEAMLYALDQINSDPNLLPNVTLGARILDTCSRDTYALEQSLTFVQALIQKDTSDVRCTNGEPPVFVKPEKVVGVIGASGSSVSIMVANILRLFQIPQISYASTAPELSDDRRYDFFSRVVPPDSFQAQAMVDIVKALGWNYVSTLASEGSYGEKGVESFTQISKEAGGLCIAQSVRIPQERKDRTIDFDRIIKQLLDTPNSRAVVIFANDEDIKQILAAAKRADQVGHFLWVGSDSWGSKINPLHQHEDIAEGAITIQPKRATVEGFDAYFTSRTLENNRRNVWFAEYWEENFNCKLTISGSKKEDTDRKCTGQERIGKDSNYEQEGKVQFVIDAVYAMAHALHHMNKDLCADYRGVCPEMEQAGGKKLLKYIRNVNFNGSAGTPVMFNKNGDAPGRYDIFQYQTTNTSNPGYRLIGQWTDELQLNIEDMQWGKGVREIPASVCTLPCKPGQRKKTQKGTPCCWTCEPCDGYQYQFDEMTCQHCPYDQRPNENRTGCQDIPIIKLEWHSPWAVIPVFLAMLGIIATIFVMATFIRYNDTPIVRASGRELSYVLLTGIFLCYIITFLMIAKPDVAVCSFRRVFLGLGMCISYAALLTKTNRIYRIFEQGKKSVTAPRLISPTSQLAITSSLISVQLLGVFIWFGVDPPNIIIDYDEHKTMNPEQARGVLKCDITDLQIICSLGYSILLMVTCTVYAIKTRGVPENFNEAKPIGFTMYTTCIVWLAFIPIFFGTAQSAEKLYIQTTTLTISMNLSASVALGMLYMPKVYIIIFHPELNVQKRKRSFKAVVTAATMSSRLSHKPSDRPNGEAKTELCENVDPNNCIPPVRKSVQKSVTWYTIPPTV

Compound	IC50 [1] [µM]	melting point [°C]
Cc1c2cnn(-c3ccccn3)c(=O)c2c(C)n1-c1cccc(-n2nccn2)c1 [1-199, 6-(3-(2H-1,2,3-Triazol-2-yl)phenyl)-5,7-dimethyl-2-(pyridin-2-yl)-2,6-dihydro-1H-pyrrolo[3,4-d]pyridazin-1-one]	0.1 to 1	173
CCN(CC)c1cccc(-n2c(C)c3cnn(-c4ccccn4)c(=O)c3c2C)c1 [1-100, 6-(3-(Diethylamino)phenyl)-5,7-dimethyl-2-(pyridin-2-yl)-2,6-dihydro-1H-pyrrolo[3,4-d]pyridazin-1-one]	0.1 to 1	< 85
COc1cccc(-n2c(C)c3cnn(-c4ccc(CN)cc4)c(=O)c3c2C)c1 [1-88, 2-(4-(Aminomethyl)phenyl)-6-(3-methoxyphenyl)-5,7-dimethyl-2,6-dihydro-1H-pyrrolo[3,4-d]pyridazin-1-one]	0.1 to 1	145 to 155
Cc1c2cnn(-c3ncccn3)c(=O)c2c(C)n1-c1cccc(OC2CC2)c1Cl [1-215, 6-(2-Chloro-3-cyclopropoxyphenyl)-5,7-dimethyl-2-(pyrimidin-2-yl)-2,6-dihydro-1H-pyrrolo[3,4-d]pyridazin-1-one]	< 0.1	228
COc1cccc(-n2c(C)c3cnn(-c4ccc(C#N)cc4)c(=O)c3c2C)c1 [1-126]	0.1 to 1	97 to 99
CCOC(=O)c1cccc(-n2c(C)c3cnn(-c4ccccn4)c(=O)c3c2C)c1 [1-133]	0.1 to 1	86 to 90
Cc1c2cnn(-c3ccccn3)c(=O)c2c(C)n1-c1cccc(-c2ccccc2)c1 [1-76, 6-([1,1′-Biphenyl]-3-yl)-5,7-dimethyl-2-(pyridin-2-yl)-2,6-dihydro-1H-pyrrolo[3,4-d]pyridazin-1-one]	0.1 to 1	106 to 109
O=c1c2cn(-c3cccc(N4CCC4)c3)cc2cnn1-c1ccccn1 [1-188, 6-(3-(Azetidin-1-yl)phenyl)-2-(pyridin-2-yl)-2,6-dihydro-1H-pyrrolo[3,4-d]pyridazin-1-one]	1 to 10	190 to 192
CNCc1ccc(-n2ncc3c(C)n(-c4cccc(OC)c4)c(C)c3c2=O)cc1 [1-109, 6-(3-Methoxyphenyl)-5,7-dimethyl-2-(4-((methylamino)methyl)phenyl)-2,6-dihydro-1H-pyrrolo[3,4-d]pyridazin-1-one]	0.1 to 1	150 to 154
COc1cccc(-n2c(C)c3cnn(-c4cc(OC)ccn4)c(=O)c3c2C)c1 [1-123]	1 to 10	95 to 97
COc1cccc(-n2c(C)c3cnn(-c4ccc(C(C)(C)O)cc4)c(=O)c3c2C)c1 [1-135, 2-(4-(2-Hydroxypropan-2-yl)phenyl)-6-(3-methoxyphenyl)-5,7-dimethyl-2,6-dihydro-1H-pyrrolo[3,4-d]pyridazin-1-one]	< 0.1	103 to 108
COc1cccc(-n2c(C)c3cnn(-c4ccc(C(C)O)cc4)c(=O)c3c2C)c1 (stereo not shown) [1-138, 2-(4-(1-Hydroxyethyl)phenyl)-6-(3-methoxyphenyl)-5,7-dimethyl-2,6-dihydro-1H-pyrrolo[3,4-d]pyridazin-1-one]	< 0.1	192 to 195

Continued, values first:

IC50 [1] [µM]	melting point [°C]	Compound
0.1 to 1	228 to 229	Cc1c2cnn(-c3ccccc3)c(=O)c2c(C)n1-c1cccc(N2CCCC2)c1 [1-101, 5,7-Dimethyl-2-phenyl-6-(3-(pyrrolidin-1-yl)phenyl)-2,6-dihydro-1H-pyrrolo[3,4-d]pyridazin-1-one]
< 0.1	213 to 215	COc1cccc(-n2c(C)c3cnn(-c4ccccc4)c(=O)c3c2C)c1 [1-26, 6-(3-Methoxyphenyl)-5,7-dimethyl-2-phenyl-2,6-dihydro-1H-pyrrolo[3,4-d]pyridazin-1-one]
0.1 to 1	116 to 119	COCCNc1cccc(-n2c(C)c3cnn(-c4ccccc4)c(=O)c3c2C)c1 [1-43, 6-(3-(2-Methoxyethylamino)phenyl)-5,7-dimethyl-2-phenyl-2,6-dihydro-1H-pyrrolo[3,4-d]pyridazin-1-one]
1 to 10	252 to 254	Cc1c2cnn(-c3ccccc3)c(=O)c2c(C)n1-c1cccc(O)c1 [1-51, 6-(3-Hydroxyphenyl)-5,7-dimethyl-2-phenyl-2,6-dihydro-1H-pyrrolo[3,4-d]pyridazin-1-one]
0.1 to 1	226	Cc1c2cnn(-c3ccccc3F)c(=O)c2c(C)n1-c1ccccc1 [1-21, 2-(2-Fluorophenyl)-5,7-dimethyl-6-phenyl-2,6-dihydro-1H-pyrrolo [3,4-d]pyridazin-1-one]
